Experimental findings from paper PMC7531004, “Discovery of gramicidin A analogues with altered activities by multidimensional screening of a one-bead-one-compound library” (Nature Communications, 2020) are described below.

Each structure is given as a SMILES string. Where a SMILES comes first, the peptide text is derived from it. [ ]: non-standard residue; d: D form. The star is where a group is joined. NHCH2CH2OH = OCCN*; For = O=C*

Data set [1] in a line: H+/Na+ transport assay of bead-derived peptides (one-point).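 Note: relative to parent gramicidin A activity set to 1.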 The class given is biochemical. Also noted: key: relative activity; mean of two control wells = 1.00. As to conditions: bead-derived peptide solution, EYPC/EYPG LUVs. Put shortly: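 Pyranine (1.0 mM)-loaded LUVs containing egg yolk phosphatidylglycerol were prepared by film hydration, sonication and extrusion, then mixed with diluted bead-derived peptide in 96-well format and vortexed 30 min at room temperature. Fluorescence was normalized between untreated LUVs (0%) and Triton X-100 lysis (100%).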

The subject of data set [2] is Streptococcus pyogenes SSI-9. Briefly: Antibacterial activity assay of bead-derived peptides (three concentrations). The class given is cell-based. The arrangement: key: +++: inhibition by the 640-fold diluted peptide solution; ++: inhibition by the 160-fold diluted solution; +: inhibition by the 40-fold diluted solution; -: no inhibition. As to conditions: S. pyogenes, bead-derived peptide solution, three concentrations. Put shortly:
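Bead-derived library peptide stocks in DMSO were tested undiluted and after 4- and 16-fold DMSO dilution against S. pyogenes SSI-9 (2 × 10^5 CFU/well) in cation-adjusted Mueller Hinton Broth with 5% laked horse blood. After 18 h at 37 °C, wells were scored for precipitation of grown cells.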

Data set [3] concerns P388 mouse leukemia cells. The conditions noted are these: 92 h. Summed up: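 First, library peptide stocks are diluted 250-fold in RPMI1640 with 10% heat-inactivated FBS. Next, they are mixed with P388 cells to give 1 × 10^4 cells/mL and incubated 92 h at 37 °C, 5% CO2. Finally, viability (%) is scored by WST-1 absorbance at 415 nm.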

Regarding `CNC(=O)C[C@@H](NC(=O)[C@@H](NC(=O)[C@@H](CC(C)C)NC(=O)[C@H](C)NC(=O)[C@@H](CC(C)C)NC(=O)[C@H](C)NC(=O)CNC(=O)[C@@H](NC=O)C(C)C)C(C)C)C(=O)N[C@@H](Cc1c[nH]c2ccccc12)C(=O)N[C@H](CC(C)C)C(=O)N[C@@H](Cc1c[nH]c2ccccc12)C(=O)N[C@H](CC(C)C)C(=O)N[C@@H](Cc1c[nH]c2ccccc12)C(=O)N[C@@H](C(=O)N[C@@H](Cc1c[nH]c2ccccc12)C(=O)NCCO)[C@H](C)O` [compound 2967] (For-VGA[dL]A[dL]V[dD](NHMe)W[dL]W[dL]W[dT]W-NHCH2CH2OH), in data set [1], the “H+/Na+ transport activity normalized against the value of 1 (1.00)” value (from here on “H+/Na+ transport activity normalized”) is listed as 1.04. Besides, the antibacterial activity entry in data set [2] is reported as “-”. In data set [3], this compound registered a cell viability/% of 100.0%.

In the case of `CC(C)C[C@@H](NC(=O)[C@H](Cc1c[nH]c2ccccc12)NC(=O)[C@H](NC(=O)[C@H](Cc1c[nH]c2ccccc12)NC(=O)[C@@H](CC(C)C)NC(=O)[C@H](Cc1c[nH]c2ccccc12)NC(=O)[C@H](NC(=O)[C@@H](NC(=O)[C@H](NC(=O)[C@H](C)NC(=O)[C@H](NC(=O)[C@H](C)NC(=O)CNC(=O)[C@@H](NC=O)C(C)C)C(C)C)C(C)C)C(C)C)C(C)C)C(C)C)C(=O)N[C@@H](Cc1c[nH]c2ccccc12)C(=O)NCCO` [compound 2994] (For-VGA[dV]A[dV]V[dV]W[dL]W[dV]W[dL]W-NHCH2CH2OH), the “H+/Na+ transport activity normalized” value in data set [1] came out at 1.14. Moreover, the antibacterial activity entry in data set [2] is on record as “++”. Also, the cell viability/% in data set [3] turned out to be 6.3%.

Turning to `CC(C)C[C@@H](NC(=O)[C@H](Cc1c[nH]c2ccccc12)NC(=O)[C@H](NC(=O)[C@H](Cc1c[nH]c2ccccc12)NC(=O)[C@H](NC(=O)[C@H](Cc1c[nH]c2ccccc12)NC(=O)[C@@H](CC(C)C)NC(=O)[C@@H](NC(=O)[C@H](NC(=O)[C@H](C)NC(=O)[C@H](NC(=O)[C@H](C)NC(=O)CNC(=O)[C@@H](NC=O)C(C)C)C(C)C)C(C)C)C(C)C)C(C)C)C(C)C)C(=O)N[C@@H](Cc1c[nH]c2ccccc12)C(=O)NCCO` [compound 3111] (For-VGA[dV]A[dV]V[dL]W[dV]W[dV]W[dL]W-NHCH2CH2OH), the “H+/Na+ transport activity normalized” value in data set [1] was 1.12. For the same compound, in data set [2], the antibacterial activity entry was “-”. Moreover, the cell viability/% in data set [3] was 8.2%.

As for `CC(C)C[C@@H](NC(=O)[C@H](C)NC(=O)CNC(=O)[C@@H](NC=O)C(C)C)C(=O)N[C@@H](C)C(=O)N[C@@H](C(=O)N[C@H](C(=O)N[C@@H](C(=O)N[C@@H](Cc1c[nH]c2ccccc12)C(=O)N[C@@H](C(=O)N[C@@H](Cc1c[nH]c2ccccc12)C(=O)N[C@H](CC(C)C)C(=O)N[C@@H](Cc1c[nH]c2ccccc12)C(=O)N[C@H](CC(C)C)C(=O)N[C@@H](Cc1c[nH]c2ccccc12)C(=O)NCCO)C(C)C)C(C)C)C(C)C)C(C)C` [compound 3124] (For-VGA[dL]A[dV]V[dV]W[dV]W[dL]W[dL]W-NHCH2CH2OH), the “H+/Na+ transport activity normalized” value in data set [1] is given as 1.26. The antibacterial activity result in data set [2] was “++”. The same compound had a cell viability/% in data set [3] of 0.0%.

With `CC(C)C[C@@H](NC(=O)[C@H](C)NC(=O)CNC(=O)[C@@H](NC=O)C(C)C)C(=O)N[C@@H](C)C(=O)N[C@H](CC(C)C)C(=O)N[C@H](C(=O)N[C@H](CC(C)C)C(=O)N[C@@H](Cc1c[nH]c2ccccc12)C(=O)N[C@H](CC(C)C)C(=O)N[C@@H](Cc1c[nH]c2ccccc12)C(=O)N[C@@H](C(=O)N[C@@H](Cc1c[nH]c2ccccc12)C(=O)N[C@@H](C(=O)N[C@@H](Cc1c[nH]c2ccccc12)C(=O)NCCO)C(C)C)[C@H](C)O)C(C)C` [compound 3143] (For-VGA[dL]A[dL]V[dL]W[dL]W[dT]W[dV]W-NHCH2CH2OH), the “H+/Na+ transport activity normalized” value in data set [1] amounted to 1.04. Besides, the antibacterial activity entry in data set [2] is “+”. In addition, the cell viability/% in data set [3] is on record as 99.9%.

For `CNC(=O)C[C@@H](NC(=O)[C@H](Cc1c[nH]c2ccccc12)NC(=O)[C@@H](CC(C)C)NC(=O)[C@@H](NC(=O)[C@@H](CC(C)C)NC(=O)[C@H](C)NC(=O)[C@H](NC(=O)[C@H](C)NC(=O)CNC(=O)[C@@H](NC=O)C(C)C)C(C)C)C(C)C)C(=O)N[C@@H](Cc1c[nH]c2ccccc12)C(=O)N[C@@H](C(=O)N[C@@H](Cc1c[nH]c2ccccc12)C(=O)N[C@@H](C(=O)N[C@@H](Cc1c[nH]c2ccccc12)C(=O)NCCO)C(C)C)C(C)C` [compound 3144] (For-VGA[dV]A[dL]V[dL]W[dD](NHMe)W[dV]W[dV]W-NHCH2CH2OH), in data set [1], the “H+/Na+ transport activity normalized” value came out at 1.01. The antibacterial activity entry in data set [2] was “-”. The same compound returned a cell viability/% in data set [3] of 100.0%.

In the case of `CC(C)C[C@@H](NC(=O)[C@H](Cc1c[nH]c2ccccc12)NC(=O)[C@@H](CC(C)C)NC(=O)[C@H](Cc1c[nH]c2ccccc12)NC(=O)[C@@H](CC(C)C)NC(=O)[C@H](Cc1c[nH]c2ccccc12)NC(=O)[C@@H](CC(C)C)NC(=O)[C@@H](NC(=O)[C@H](NC(=O)[C@H](C)NC(=O)[C@H](NC(=O)[C@H](C)NC(=O)CNC(=O)[C@@H](NC=O)C(C)C)C(C)C)C(C)C)C(C)C)C(=O)N[C@@H](Cc1c[nH]c2ccccc12)C(=O)NCCO` [compound 3308] (For-VGA[dV]A[dV]V[dL]W[dL]W[dL]W[dL]W-NHCH2CH2OH), in data set [1], the “H+/Na+ transport activity normalized” value amounted to 1.15. Further, the antibacterial activity entry in data set [2] is “++”. Moreover, in data set [3], the cell viability/% is 0.1%.

Take `CC(C)C[C@@H](NC(=O)[C@H](Cc1c[nH]c2ccccc12)NC(=O)[C@@H](CC(C)C)NC(=O)[C@H](Cc1c[nH]c2ccccc12)NC(=O)[C@@H](CC(C)C)NC(=O)[C@H](Cc1c[nH]c2ccccc12)NC(=O)[C@H](NC(=O)[C@@H](NC(=O)[C@H](NC(=O)[C@H](C)NC(=O)[C@H](NC(=O)[C@H](C)NC(=O)CNC(=O)[C@@H](NC=O)C(C)C)C(C)C)C(C)C)C(C)C)C(C)C)C(=O)N[C@@H](Cc1c[nH]c2ccccc12)C(=O)NCCO` [compound 3311] (For-VGA[dV]A[dV]V[dV]W[dL]W[dL]W[dL]W-NHCH2CH2OH): the “H+/Na+ transport activity normalized” value in data set [1] came to 1.14. In data set [2], the antibacterial activity result is reported as “++”. The compound also returned a cell viability/% in data set [3] of 3.3%.

Take `CC(C)C[C@@H](NC(=O)[C@H](C)NC(=O)CNC(=O)[C@@H](NC=O)C(C)C)C(=O)N[C@@H](C)C(=O)N[C@@H](C(=O)N[C@H](C(=O)N[C@@H](C(=O)N[C@@H](Cc1c[nH]c2ccccc12)C(=O)N[C@@H](C(=O)N[C@@H](Cc1c[nH]c2ccccc12)C(=O)N[C@H](CC(C)C)C(=O)N[C@@H](Cc1c[nH]c2ccccc12)C(=O)N[C@@H](C(=O)N[C@@H](Cc1c[nH]c2ccccc12)C(=O)NCCO)C(C)C)C(C)C)C(C)C)C(C)C)[C@H](C)O` [compound 3364] (For-VGA[dL]A[dT]V[dV]W[dV]W[dL]W[dV]W-NHCH2CH2OH): the “H+/Na+ transport activity normalized” value in data set [1] was 1.09. Besides, in data set [2], the antibacterial activity entry is on record as “-”. In addition, the cell viability/% in data set [3] stood at 100.0%.

Take `CC(C)C[C@@H](NC(=O)[C@H](C)NC(=O)[C@H](NC(=O)[C@H](C)NC(=O)CNC(=O)[C@@H](NC=O)C(C)C)C(C)C)C(=O)N[C@H](C(=O)N[C@H](CC(C)C)C(=O)N[C@@H](Cc1c[nH]c2ccccc12)C(=O)N[C@H](CC(C)C)C(=O)N[C@@H](Cc1c[nH]c2ccccc12)C(=O)N[C@H](CC(C)C)C(=O)N[C@@H](Cc1c[nH]c2ccccc12)C(=O)N[C@@H](C(=O)N[C@@H](Cc1c[nH]c2ccccc12)C(=O)NCCO)[C@H](C)O)C(C)C` [compound 3365] (For-VGA[dV]A[dL]V[dL]W[dL]W[dL]W[dT]W-NHCH2CH2OH): the “H+/Na+ transport activity normalized” value in data set [1] is listed as 1.03. The antibacterial activity entry in data set [2] was “+”. The cell viability/% in data set [3] came to 100.0%.

For `CC(C)C[C@@H](NC(=O)[C@H](C)NC(=O)[C@H](NC(=O)[C@H](C)NC(=O)CNC(=O)[C@@H](NC=O)C(C)C)C(C)C)C(=O)N[C@H](C(=O)N[C@@H](C(=O)N[C@@H](Cc1c[nH]c2ccccc12)C(=O)N[C@H](CC(C)C)C(=O)N[C@@H](Cc1c[nH]c2ccccc12)C(=O)N[C@@H](C(=O)N[C@@H](Cc1c[nH]c2ccccc12)C(=O)N[C@@H](C(=O)N[C@@H](Cc1c[nH]c2ccccc12)C(=O)NCCO)C(C)C)C(C)C)[C@H](C)O)C(C)C` [compound 3375] (For-VGA[dV]A[dL]V[dT]W[dL]W[dV]W[dV]W-NHCH2CH2OH), the “H+/Na+ transport activity normalized” value in data set [1] is 1.29. In addition, the antibacterial activity entry in data set [2] is on record as “-”. Further, the cell viability/% in data set [3] is 100.0%.

In the case of `CC(C)C[C@@H](NC(=O)[C@H](C)NC(=O)[C@H](NC(=O)[C@H](C)NC(=O)CNC(=O)[C@@H](NC=O)C(C)C)[C@H](C)O)C(=O)N[C@H](C(=O)N[C@H](CC(C)C)C(=O)N[C@@H](Cc1c[nH]c2ccccc12)C(=O)N[C@@H](C(=O)N[C@@H](Cc1c[nH]c2ccccc12)C(=O)N[C@H](CC(C)C)C(=O)N[C@@H](Cc1c[nH]c2ccccc12)C(=O)N[C@@H](C(=O)N[C@@H](Cc1c[nH]c2ccccc12)C(=O)NCCO)C(C)C)[C@H](C)O)C(C)C` [compound 3437] (For-VGA[dT]A[dL]V[dL]W[dT]W[dL]W[dV]W-NHCH2CH2OH), the “H+/Na+ transport activity normalized” value in data set [1] was 1.01. In data set [2], the antibacterial activity entry is listed as “-”. The compound further gave a cell viability/% in data set [3] of 100.0%.
